# Measured values from patent US20090130017A1, “Targeted short-lived drug delivery” (Searete LLC, priority 2007, published 2009).
# Read-outs that look alike come from different tables or passages of the source.
# B1: NEUPOGEN® (Filgrastim): colony stimulating factor product, normally used systemically (protein, chains of the INN, looked up)
# chain: MTPLGPASSLPQSFLLKCLEQVRKIQGDGAALQEKLCATYKLCHPEELVLLGHSLGIPWAPLSSCPSQALQLAGCLSQLHSGLFLYQGLLQALEGISPELGPTLDTLQLDVADFATTIWQQMEELGMAPALQPTQGAMPAFASAFQRRAGGVLVASHLQSFLEVSYRVLRHLAQP
# Experiments:
# [1] = estimated blood plasma concentration of oxaliplatin in systemic therapy for colon cancer; format: in vivo, human; settings: 85 mg per meter-squared, 145 mg total dose, 65 kg person, 5 liters of blood, assuming even distribution and constant rate of elimination
# [2] = in vivo; cited from earlier work
# [3] = cited from earlier work
# [4] = rat, in vivo; cited from earlier work
# [5] = cited from earlier work; remark: listed apart in the source
# [6] = IV infusion of 20 mcg/kg over 24 hours
molecule,measurement,setting,value
O=C1[O][Pt]2([NH][C@@H]3CCCC[C@H]3[NH]2)[O]C1=O [oxaliplatin],blood plasma concentration,[1],approximately 3 micrograms per milliliter
same,half-life,[2],10 to 25 min
tissue plasminogen activator [TPA],circulation half-life,[2],approximately 5 minutes
"CC[C@H]1OC(=O)[C@H](C)[C@@H](O[C@H]2C[C@@](C)(OC)[C@@H](O)[C@H](C)O2)[C@H](C)[C@@H](O[C@@H]2O[C@H](C)C[C@H](N(C)C)[C@H]2O)[C@](C)(O)C[C@@H](C)C(=O)[C@H](C)[C@@H](O)[C@]1(C)O [Erythromycin, erythromycin]",half-life,[2],approximately 1.5 hours
"O=C(O)CCCc1ccc(N(CCCl)CCCl)cc1 [Chlorambucil, chlorambucil]",half-life,[3]; in human,about 1.5 hours
heparin,half-life,[2],around 1.5 hours
COc1cc([C@@H]2c3cc4c(cc3[C@@H](O[C@@H]3O[C@@H]5CO[C@@H](C)O[C@H]5[C@H](O)[C@H]3O)[C@H]3COC(=O)[C@H]23)OCO4)cc(OC)c1O [etoposide],half-life,[3]; in children,about 3 hours
NGF: nerve growth factor,serum half-life,[4],about 7.2 minutes
streptokinase,half-life,[2],about 20 minutes
COc1ccc(C(CN(C)C)C2(O)CCCCC2)cc1 (centres unmarked) [venlafaxine],half-life,[2],about 5 hours
"Nc1ncnc2c1ncn2[C@@H]1O[C@H](CO)[C@@H](O)[C@H]1O [Adenosine, adenosine]",half-life (in words),[2],a few seconds
N.N.O=C([O-])C1(C(=O)[O-])CCC1.[Pt+2] [carboplatin],half-life,[2],60 to 120 min
B1,mean serum concentration,[5]; [6],approximately 48 ng/mL
same,median serum concentration,[5]; [6],~56 ng/mL
same,maximum serum concentration,[5]; subcutaneous administration of 3.45 mcg/kg,4 ng/mL
same,maximum serum concentration,[5]; subcutaneous administration of 11.5 mcg/kg,49 ng/mL
same,half-life,[2],about 3.5 hours
